Assays:
[1] = target: CDK2 (Homo sapiens, UniProt P24941); test: biochemical
[2] = target: CK1 alpha (Homo sapiens, UniProt P48729); test: biochemical
[3] = target: GSK3 beta (Homo sapiens, UniProt P49841); test: biochemical
[4] = target: JNK1 (Homo sapiens, UniProt P45983); test: biochemical
[5] = target: LCK (Homo sapiens, UniProt P06239); test: biochemical
[6] = target: T1, op-mu (Homo sapiens, UniProt P35372); test: cell-based
[7] = target: D1 (Homo sapiens, UniProt P21728); test: cell-based
Sequence of D1 (P21728 whole entry): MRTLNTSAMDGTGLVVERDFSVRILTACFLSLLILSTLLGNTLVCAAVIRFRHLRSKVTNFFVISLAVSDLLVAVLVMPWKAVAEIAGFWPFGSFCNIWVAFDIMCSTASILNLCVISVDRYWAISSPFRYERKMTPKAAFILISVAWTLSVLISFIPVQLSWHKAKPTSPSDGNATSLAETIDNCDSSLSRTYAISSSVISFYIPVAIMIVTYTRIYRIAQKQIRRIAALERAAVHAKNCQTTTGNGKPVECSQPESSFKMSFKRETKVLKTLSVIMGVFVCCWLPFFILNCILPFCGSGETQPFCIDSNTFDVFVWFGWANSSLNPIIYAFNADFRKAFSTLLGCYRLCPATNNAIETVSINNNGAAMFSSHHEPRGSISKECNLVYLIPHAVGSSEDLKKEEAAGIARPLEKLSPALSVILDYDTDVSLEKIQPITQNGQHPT

[8] = target: T2, D2 (Homo sapiens, UniProt P14416); test: cell-based
T2 sequence (P14416 whole entry): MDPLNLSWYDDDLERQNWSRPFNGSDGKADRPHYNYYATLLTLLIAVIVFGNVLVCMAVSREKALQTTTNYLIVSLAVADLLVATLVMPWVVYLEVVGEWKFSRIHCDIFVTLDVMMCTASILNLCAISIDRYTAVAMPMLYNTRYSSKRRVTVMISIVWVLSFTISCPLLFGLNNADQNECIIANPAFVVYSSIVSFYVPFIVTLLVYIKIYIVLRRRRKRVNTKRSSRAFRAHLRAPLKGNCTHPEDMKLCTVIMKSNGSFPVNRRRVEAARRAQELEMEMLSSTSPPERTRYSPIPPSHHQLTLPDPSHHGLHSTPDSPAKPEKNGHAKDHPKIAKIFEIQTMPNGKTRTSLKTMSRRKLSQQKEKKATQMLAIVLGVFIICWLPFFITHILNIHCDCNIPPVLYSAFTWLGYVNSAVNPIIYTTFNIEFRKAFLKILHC

[9] = target: M2 (Homo sapiens, UniProt P08172); test: cell-based
[10] = target: Beta1 (Homo sapiens, UniProt P08588); test: cell-based
Sequence of Beta1 (P08588 whole entry): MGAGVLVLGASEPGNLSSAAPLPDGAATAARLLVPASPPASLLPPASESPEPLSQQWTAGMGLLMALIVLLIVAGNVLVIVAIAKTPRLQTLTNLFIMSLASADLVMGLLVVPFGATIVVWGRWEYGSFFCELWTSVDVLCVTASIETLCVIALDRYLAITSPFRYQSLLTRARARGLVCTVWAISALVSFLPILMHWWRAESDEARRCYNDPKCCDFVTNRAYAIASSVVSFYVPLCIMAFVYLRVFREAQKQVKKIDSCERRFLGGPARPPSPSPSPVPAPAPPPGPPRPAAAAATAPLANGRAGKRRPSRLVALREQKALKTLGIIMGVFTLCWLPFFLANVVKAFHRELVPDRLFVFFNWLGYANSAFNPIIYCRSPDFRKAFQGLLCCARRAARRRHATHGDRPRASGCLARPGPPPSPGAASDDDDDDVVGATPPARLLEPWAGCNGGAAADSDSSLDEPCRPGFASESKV

[11] = target: T3, Eta (Homo sapiens, UniProt P25101); test: cell-based
T3 sequence (P25101 21-427): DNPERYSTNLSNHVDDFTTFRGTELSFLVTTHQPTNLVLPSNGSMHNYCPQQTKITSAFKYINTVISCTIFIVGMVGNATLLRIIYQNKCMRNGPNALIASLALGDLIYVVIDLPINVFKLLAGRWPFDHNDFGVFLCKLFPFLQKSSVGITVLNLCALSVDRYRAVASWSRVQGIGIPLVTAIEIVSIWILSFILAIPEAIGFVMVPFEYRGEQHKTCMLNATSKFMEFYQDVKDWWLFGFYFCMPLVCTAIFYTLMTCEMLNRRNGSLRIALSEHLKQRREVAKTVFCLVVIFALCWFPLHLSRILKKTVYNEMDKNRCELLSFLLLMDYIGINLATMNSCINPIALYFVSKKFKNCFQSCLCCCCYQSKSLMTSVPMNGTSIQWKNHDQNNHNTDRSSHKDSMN

[12] = target: T4, H1 (Homo sapiens, UniProt P35367); test: cell-based
T4 sequence (P35367 whole entry): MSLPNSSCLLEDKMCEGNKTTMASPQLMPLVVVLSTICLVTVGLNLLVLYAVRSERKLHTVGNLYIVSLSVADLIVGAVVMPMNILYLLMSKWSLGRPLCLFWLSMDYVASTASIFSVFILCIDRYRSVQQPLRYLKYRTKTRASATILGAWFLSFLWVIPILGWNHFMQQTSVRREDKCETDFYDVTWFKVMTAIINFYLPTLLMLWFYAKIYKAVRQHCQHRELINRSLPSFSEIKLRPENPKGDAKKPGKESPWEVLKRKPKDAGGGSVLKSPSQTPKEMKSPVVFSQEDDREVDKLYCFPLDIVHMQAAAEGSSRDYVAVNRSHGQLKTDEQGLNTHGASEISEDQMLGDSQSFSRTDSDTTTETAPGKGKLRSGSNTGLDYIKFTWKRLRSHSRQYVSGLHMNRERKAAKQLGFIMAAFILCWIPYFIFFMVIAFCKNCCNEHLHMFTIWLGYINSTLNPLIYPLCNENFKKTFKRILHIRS

[13] = target: 5HT1A (Homo sapiens, UniProt P08908); test: cell-based
[14] = target: CB1 (Homo sapiens, UniProt P21554); test: cell-based
[15] = target: T5, CB2 (Homo sapiens, UniProt P34972); test: cell-based
T5 sequence (P34972 whole entry): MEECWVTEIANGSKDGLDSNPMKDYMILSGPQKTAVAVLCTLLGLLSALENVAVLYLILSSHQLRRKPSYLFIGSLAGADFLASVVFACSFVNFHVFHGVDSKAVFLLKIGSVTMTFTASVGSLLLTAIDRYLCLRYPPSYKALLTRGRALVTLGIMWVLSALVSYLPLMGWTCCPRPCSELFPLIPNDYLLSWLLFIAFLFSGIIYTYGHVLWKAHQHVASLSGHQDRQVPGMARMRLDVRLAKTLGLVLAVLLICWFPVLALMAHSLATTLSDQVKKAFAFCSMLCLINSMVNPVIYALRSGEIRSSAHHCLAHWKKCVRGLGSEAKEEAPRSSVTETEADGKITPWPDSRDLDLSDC

[16] = target: T1, op-mu; test: cell-based; remark: listed apart in the source
[17] = target: T2, D2; test: cell-based; remark: listed apart in the source
[18] = target: Alpha1a (Homo sapiens, UniProt P35348); test: cell-based
[19] = target: Beta2 (Homo sapiens, UniProt P07550); test: cell-based
Sequence of Beta2 (P07550 whole entry): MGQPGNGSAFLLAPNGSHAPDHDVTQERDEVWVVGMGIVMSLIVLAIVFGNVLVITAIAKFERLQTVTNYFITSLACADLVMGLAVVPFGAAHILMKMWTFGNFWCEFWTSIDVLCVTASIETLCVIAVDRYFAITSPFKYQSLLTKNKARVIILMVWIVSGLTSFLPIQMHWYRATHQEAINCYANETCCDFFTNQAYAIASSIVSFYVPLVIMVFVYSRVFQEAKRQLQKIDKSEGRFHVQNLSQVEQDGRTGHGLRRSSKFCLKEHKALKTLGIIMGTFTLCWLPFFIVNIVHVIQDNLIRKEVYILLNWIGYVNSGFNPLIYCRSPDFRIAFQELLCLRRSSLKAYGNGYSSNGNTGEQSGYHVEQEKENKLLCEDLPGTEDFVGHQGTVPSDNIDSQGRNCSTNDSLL

[20] = target: T3, Eta; test: cell-based; remark: listed apart in the source
[21] = target: T4, H1; test: cell-based; remark: listed apart in the source
[22] = target: H2 (Homo sapiens, UniProt P25021); test: cell-based
Sequence of H2 (P25021 whole entry): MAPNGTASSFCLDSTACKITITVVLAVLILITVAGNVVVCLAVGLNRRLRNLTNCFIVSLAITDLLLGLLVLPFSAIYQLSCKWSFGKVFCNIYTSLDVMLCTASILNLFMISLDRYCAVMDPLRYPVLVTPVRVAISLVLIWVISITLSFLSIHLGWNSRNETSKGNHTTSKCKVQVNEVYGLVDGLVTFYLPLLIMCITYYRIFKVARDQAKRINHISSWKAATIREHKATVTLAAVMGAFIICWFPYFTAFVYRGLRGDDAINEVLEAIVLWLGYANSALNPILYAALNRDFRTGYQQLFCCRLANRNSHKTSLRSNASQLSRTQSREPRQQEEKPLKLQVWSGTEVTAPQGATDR

[23] = target: T5, CB2; test: cell-based; remark: listed apart in the source
[24] = system: Influenza virus A/Mal/302/54 (H1N1); test: microbe, parasite or virus in culture; assay type: cell-based; conditions: H1N1, MDCK, read-out: EC50 (mean ± SD)
[25] = system: EV71 Shenzhen/120F1/09; test: microbe, parasite or virus in culture; assay type: cell-based, human enterovirus 71; conditions: Enterovirus A, EV71, RD, read-out: EC50 for Virus
[26] = system: HBV; test: microbe, parasite or virus in culture; assay type: cell-based; conditions: Hepatitis B virus, HepG2.2.15, read-out: EC50 for Virus
[27] = system: influenza A virus WSN/33 (H1N1); design: species or system BALB/c mice; conditions: mouse, in vivo
[28] = system: A/PR/8/34 (H1N1); design: species or system BALB/c mice; conditions: mouse, in vivo
[29] = in vivo; conditions: both, SD, rat; for AUC(0-t): AUC0-last
[30] = in vivo; conditions: female, BALB/c, mouse, po
[31] = target: T6, hERG potassium channel (Homo sapiens, UniProt Q12809); test: in vitro
T6 sequence (Q12809 whole entry): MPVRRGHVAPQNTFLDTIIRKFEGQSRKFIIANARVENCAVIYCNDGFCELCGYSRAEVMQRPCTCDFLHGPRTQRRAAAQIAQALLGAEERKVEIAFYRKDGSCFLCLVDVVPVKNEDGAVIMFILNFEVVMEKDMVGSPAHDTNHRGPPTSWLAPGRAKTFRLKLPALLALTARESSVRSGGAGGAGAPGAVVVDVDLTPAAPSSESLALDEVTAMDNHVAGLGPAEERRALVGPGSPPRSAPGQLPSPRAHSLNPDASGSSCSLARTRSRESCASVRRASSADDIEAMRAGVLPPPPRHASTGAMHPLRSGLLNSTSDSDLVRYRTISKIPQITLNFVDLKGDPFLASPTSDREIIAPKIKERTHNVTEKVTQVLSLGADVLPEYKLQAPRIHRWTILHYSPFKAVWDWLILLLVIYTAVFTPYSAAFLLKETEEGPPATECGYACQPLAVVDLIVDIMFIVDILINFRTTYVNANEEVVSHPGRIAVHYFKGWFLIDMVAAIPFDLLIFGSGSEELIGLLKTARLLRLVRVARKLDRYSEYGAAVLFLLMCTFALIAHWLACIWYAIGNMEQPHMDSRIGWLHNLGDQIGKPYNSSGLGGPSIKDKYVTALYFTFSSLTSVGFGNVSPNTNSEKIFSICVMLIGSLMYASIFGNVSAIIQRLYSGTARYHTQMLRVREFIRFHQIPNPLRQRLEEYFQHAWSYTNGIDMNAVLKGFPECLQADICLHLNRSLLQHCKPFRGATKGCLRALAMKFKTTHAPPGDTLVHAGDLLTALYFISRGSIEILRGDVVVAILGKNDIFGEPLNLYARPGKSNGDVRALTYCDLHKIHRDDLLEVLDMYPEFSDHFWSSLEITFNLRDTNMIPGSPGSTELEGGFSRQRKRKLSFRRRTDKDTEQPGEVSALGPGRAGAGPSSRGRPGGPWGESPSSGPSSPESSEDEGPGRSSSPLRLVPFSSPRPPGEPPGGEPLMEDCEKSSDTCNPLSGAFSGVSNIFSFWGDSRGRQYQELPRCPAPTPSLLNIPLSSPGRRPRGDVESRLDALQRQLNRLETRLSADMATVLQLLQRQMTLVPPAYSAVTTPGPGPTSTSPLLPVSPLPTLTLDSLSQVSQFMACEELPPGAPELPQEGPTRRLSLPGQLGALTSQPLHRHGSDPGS

[32] = in vitro; conditions: human
[33] = target: CHK1 (Homo sapiens, UniProt O14757); test: biochemical
[34] = target: T6, hERG potassium channel; test: cell-based
[35] = target: MINK (Homo sapiens, UniProt Q8N4C8); test: biochemical
[36] = target: PDK1 (Homo sapiens, UniProt O15530); test: biochemical
[37] = 10,000 nM, read-out: Inhibition at Maximum Concentration (%)

T1 sequence (P35372 whole entry): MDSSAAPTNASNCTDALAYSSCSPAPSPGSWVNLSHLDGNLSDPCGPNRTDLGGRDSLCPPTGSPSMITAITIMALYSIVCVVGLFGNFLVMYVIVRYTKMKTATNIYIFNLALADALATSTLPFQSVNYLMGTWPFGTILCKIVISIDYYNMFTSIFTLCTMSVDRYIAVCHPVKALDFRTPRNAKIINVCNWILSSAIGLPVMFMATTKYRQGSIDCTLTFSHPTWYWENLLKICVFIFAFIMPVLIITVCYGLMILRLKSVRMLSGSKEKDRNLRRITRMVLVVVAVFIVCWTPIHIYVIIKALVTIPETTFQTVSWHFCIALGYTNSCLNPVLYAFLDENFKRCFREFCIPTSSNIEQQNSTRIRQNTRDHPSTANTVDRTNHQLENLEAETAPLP

O=C(O)[C@H]1C2CCC(CC2)[C@@H]1Nc1nc(-c2n[nH]c3ncc(F)cc23)nc(C2CC2)c1F [ZSP1273]
IC50 [1]: > 10 µM
IC50 [2]: > 10 µM
IC50 [3]: > 10 µM
IC50 [4]: > 10 µM
IC50 [5]: > 10 µM
EC50 [6]: > 12 µM
Activity at Maximum Concentration (%) ([6]; 12,000 nM): −3.45%
EC50 [7]: > 12 µM
Activity at Maximum Concentration (%) ([7]; 12,000 nM): −2.15%
EC50 [8]: > 12 µM
Activity at Maximum Concentration (%) ([8]; 12,000 nM): −0.06%
EC50 [9]: > 12 µM
Activity at Maximum Concentration (%) ([9]; 12,000 nM): −3%
EC50 [10]: > 12 µM
Activity at Maximum Concentration (%) ([10]; 12,000 nM): 0.54%
EC50 [11]: > 12 µM
Activity at Maximum Concentration (%) ([11]; 12,000 nM): −1.16%
EC50 [12]: > 12 µM
Activity at Maximum Concentration (%) ([12]; 12,000 nM): 0.73%
EC50 [13]: > 12 µM
Activity at Maximum Concentration (%) ([13]; 12,000 nM): 16.98%
EC50 [14]: > 12 µM
Activity at Maximum Concentration (%) ([14]; 12,000 nM): −12.1%
EC50 [15]: > 12 µM
Activity at Maximum Concentration (%) ([15]; 12,000 nM): −17.1%
IC50 [16]: > 10 µM
inhibition at 10 µM [16, 37]: -24.5%
IC50 [17]: > 10 µM
inhibition at 10 µM [17, 37]: 13.6%
IC50 [18]: > 10 µM
inhibition at 10 µM [18, 37]: -56.5%
IC50 [19]: > 10 µM
inhibition at 10 µM [19, 37]: -33.2%
IC50 [20]: > 10 µM
inhibition at 10 µM [20, 37]: 9.07%
IC50 [21]: > 10 µM
inhibition at 10 µM [21, 37]: 13.4%
IC50 [22]: > 10 µM
inhibition at 10 µM [22, 37]: 42.4%
IC50 [23]: > 10 µM
inhibition at 10 µM [23, 37]: 42%
EC50 [24]: 0.028 ± 0.011 nM
EC50 [25]: > 10 µM
EC50 [26]: > 10 µM
animals died (of n = 8) [27]: one
day on which body weight of surviving mice began to recover [27]: 8 days
day on which weight of surviving mice increased gradually [27]: 6th
mice died (of n = 8) [27]: no mice died
survival rate [27]: 100%
lung index [28]: significantly decreased
viral titers in the lung tissues [28]: 0
Vd ([29]; iv, 3 mg/kg): 0.508 ± 0.241 L/kg
clearance ([29]; iv, 3 mg/kg): 12.9 ± 2.23 mL/min/kg
half-life ([29]; iv, 3 mg/kg): 127 ± 87.6 min
AUC(0-t) ([29]; iv, 3 mg/kg): 3950 ± 773 ng·h/mL
bioavailability ([29]; po, 3 mg/kg): 22.8%
AUC(0-t) ([29]; po, 3 mg/kg): 899 ± 213 ng·h/mL
Cmax ([29]; po, 3 mg/kg): 661 ± 304 ng/mL
AUC(0-t) ([29]; po, 15 mg/kg): 12100 ng·h/mL
Cmax ([29]; po, 15 mg/kg): 5680 ± 2470 ng/mL
AUC(0-t) ([29]; po, 75 mg/kg): 77700 ng·h/mL
Cmax ([29]; po, 75 mg/kg): 17200 ng/mL
AUC(0-t) ([30]; 3 mg/kg): 1040 ng·h/mL
Cmax ([30]; 3 mg/kg): 439 ng/mL
AUC(0-t) ([30]; 10 mg/kg): 6190 ng·h/mL
Cmax ([30]; 10 mg/kg): 3010 ng/mL
AUC(0-t) ([30]; 30 mg/kg): 56000 ng·h/mL
Cmax ([30]; 30 mg/kg): 23700 ng/mL
inhibition at 40 µM [31]: < 50%
CC50 [32]: > 10 µM
IC50 [33]: > 10 µM
IC50 [34]: > 40 µM
IC50 [35]: > 10 µM
IC50 [36]: > 10 µM
